Assay results reported in ChEMBL document CHEMBL1201862, “PubChem BioAssay data set” (2004).
The source made the active and inactive calls.

What was measured:
[1] = HepG2 cell cytotoxicity, dose response, cytotoxicity control, cherry-picked samples (AID 1159577); format: functional, cell-based
[2] = P. falciparum Dd2 growth inhibitors, dose response, SYBR Green, dry powder samples (AID 1159566); format: functional, cell-based;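 also: potency for growth inhibition with lower SYBR green DNA signal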
[3] = P. falciparum ATP4 D1247Y mutant growth inhibitors, dose response, NITD609-resistant line, SYBR Green, dry powder (AID 1159571); format: functional, cell-based;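 also: parasites synchronized at ring stage by sorbitol before testing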
[4] = P. falciparum 3D7-ScDHODH growth inhibitors, dose response, SYBR Green, dry powder samples (AID 1159570); format: functional, cell-based;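 also: parasite growth measured after 72 hours of compound exposure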
[5] = HepG2 cell cytotoxicity, dose response, cytotoxicity control, plate reader, dry powder samples (AID 1159569); format: functional, cell-based;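 also: inhibitor potency with signal falling toward the positive control level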
[6] = P. falciparum Dd2 growth inhibitors, dose response, SYBR Green, cherry-picked samples (AID 1159567); format: functional, cell-based
[7] = cytotoxicity toward NIH3T3 fibroblasts, dose response, counter-screen, cell-based, ATP luminescence, mouse fibroblasts (AID 2010); format: functional;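 also: cells exposed to compound for about 90 hours before reading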
[8] = inhibitors of intracellular T. cruzi replication, confirmation, NIH3T3 host cells, beta-gal luminescence (AID 2044); format: functional, cell-based;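 also: intracellular parasites grown in NIH/3T3 mouse fibroblasts as host cells; luminescent beta-galactosidase reporter signal from transgenic T. cruzi replicating inside host cells; inhibitors lower the luminescence signal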
[9] = target: T1, Estrogen receptor (Homo sapiens, UniProt P03372);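 also: potency for inhibiting coactivator peptide recruitment to the receptor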
T1 sequence (P03372 whole entry): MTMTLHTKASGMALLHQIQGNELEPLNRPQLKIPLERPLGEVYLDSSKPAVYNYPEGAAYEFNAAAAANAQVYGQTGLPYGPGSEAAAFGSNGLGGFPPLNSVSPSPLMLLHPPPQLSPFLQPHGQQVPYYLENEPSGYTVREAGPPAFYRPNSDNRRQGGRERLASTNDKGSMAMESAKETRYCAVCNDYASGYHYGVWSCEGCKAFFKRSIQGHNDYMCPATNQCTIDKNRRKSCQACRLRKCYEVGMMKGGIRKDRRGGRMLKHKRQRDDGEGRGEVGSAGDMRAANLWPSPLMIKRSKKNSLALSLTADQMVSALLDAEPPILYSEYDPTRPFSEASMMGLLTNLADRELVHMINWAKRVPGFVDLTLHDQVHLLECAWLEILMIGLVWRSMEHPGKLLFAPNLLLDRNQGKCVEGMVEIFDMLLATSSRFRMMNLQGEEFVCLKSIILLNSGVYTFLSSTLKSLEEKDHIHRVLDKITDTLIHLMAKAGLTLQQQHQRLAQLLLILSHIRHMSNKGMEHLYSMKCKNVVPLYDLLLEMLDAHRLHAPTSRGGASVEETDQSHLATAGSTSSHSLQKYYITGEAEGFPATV

[10] = target: T2, Corticotropin-releasing factor receptor 2/Corticotropin-releasing factor-binding protein (Homo sapiens, UniProt P24387+Q13324); experiment: Dose Response confirmation of uHTS hits for small molecule antagonists of the CRF-binding protein and CRF-R2 receptor complex.; format: functional; conditions: read-out: IC50_Mean
T2 sequence (Q13324 whole entry): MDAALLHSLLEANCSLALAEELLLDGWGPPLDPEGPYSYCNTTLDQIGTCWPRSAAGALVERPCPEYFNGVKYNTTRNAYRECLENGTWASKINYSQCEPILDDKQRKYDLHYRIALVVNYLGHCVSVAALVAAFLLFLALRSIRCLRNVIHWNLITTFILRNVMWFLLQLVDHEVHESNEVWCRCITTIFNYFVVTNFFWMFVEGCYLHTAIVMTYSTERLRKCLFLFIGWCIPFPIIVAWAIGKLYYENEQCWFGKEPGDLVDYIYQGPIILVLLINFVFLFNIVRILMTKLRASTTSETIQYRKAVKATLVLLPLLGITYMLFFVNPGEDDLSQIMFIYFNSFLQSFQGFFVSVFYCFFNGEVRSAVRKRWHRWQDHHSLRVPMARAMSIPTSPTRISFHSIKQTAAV
T2 sequence (P24387 whole entry): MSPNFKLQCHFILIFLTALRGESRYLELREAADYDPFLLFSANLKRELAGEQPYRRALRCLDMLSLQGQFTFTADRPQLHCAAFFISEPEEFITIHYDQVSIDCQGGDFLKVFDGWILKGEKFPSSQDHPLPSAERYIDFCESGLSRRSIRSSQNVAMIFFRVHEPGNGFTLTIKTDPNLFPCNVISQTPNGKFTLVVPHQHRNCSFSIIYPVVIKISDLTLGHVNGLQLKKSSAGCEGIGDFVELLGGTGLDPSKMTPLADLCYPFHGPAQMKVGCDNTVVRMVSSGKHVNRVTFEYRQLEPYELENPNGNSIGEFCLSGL

[11] = THP-1 cell cytotoxicity, dose response, cytotoxicity control for Vif-APOBEC3G degradation inhibitor project, THP-1 cells (AID 1117359); format: functional; conditions: Human immunodeficiency virus 1, THP-1
[12] = target: T2, Corticotropin-releasing factor receptor 2/Corticotropin-releasing factor-binding protein; experiment: activators of CRF receptor 2 with binding protein – uHTS hits, confirmation (AID 602473); format: functional; conditions: read-out: EC50_Mean
[13] = inhibitors of HIV Env-driven cell fusion, dose response, cherry-pick (AID 652057); format: functional, cell-based
[14] = target: Paired box protein Pax-8 (Homo sapiens, UniProt Q06710); experiment: inhibitors of PAX8-driven TPO luciferase reporter, dose response, RMG-I cells, cherry-pick (AID 687027); format: functional, cell-based;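 also: luciferase reporter driven by Pax8 target thyroperoxidase promoter measured by SteadyGlo luminescence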
Paired box protein Pax-8, sequence (Q06710 whole entry, the tested form may be a part): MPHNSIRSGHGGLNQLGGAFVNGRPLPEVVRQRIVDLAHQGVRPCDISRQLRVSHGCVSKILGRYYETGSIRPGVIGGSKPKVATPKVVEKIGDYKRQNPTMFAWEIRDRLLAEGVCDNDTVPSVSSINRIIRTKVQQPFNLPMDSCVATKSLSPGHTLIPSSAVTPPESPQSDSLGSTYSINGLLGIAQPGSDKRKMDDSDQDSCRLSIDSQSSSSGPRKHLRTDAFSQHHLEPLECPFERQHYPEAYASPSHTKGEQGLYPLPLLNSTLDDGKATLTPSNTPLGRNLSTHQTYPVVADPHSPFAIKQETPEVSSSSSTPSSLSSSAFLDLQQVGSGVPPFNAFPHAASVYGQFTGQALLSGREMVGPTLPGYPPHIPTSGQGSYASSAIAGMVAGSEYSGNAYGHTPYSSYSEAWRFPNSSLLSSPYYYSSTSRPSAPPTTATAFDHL

[15] = ZM109 Env clade C HIV-1 fusion inhibitors, dose response, HeLa effector, CEM target cells, luciferase, cherry-pick (AID 652058); format: functional, cell-based
[16] = inhibitors of clade B AD8 Env fusion, dose response, cell-based, cherry-pick (AID 652062); format: functional;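 also: luciferase signal from cell-cell fusion driven by HIV-1 clade B AD8 Env; potency is for inhibitors of fusion seen as a drop in luminescence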
[17] = target: T3, Rac GTPase-activating protein 1 (Homo sapiens, UniProt Q9H0H5); experiment: MgcRacGAP GTPase-activating activity inhibitors, confirmation, biochemical, ADP Hunter fluorescence, primary and confirmatory (AID 624330); format: functional
T3 sequence (Q9H0H5 whole entry): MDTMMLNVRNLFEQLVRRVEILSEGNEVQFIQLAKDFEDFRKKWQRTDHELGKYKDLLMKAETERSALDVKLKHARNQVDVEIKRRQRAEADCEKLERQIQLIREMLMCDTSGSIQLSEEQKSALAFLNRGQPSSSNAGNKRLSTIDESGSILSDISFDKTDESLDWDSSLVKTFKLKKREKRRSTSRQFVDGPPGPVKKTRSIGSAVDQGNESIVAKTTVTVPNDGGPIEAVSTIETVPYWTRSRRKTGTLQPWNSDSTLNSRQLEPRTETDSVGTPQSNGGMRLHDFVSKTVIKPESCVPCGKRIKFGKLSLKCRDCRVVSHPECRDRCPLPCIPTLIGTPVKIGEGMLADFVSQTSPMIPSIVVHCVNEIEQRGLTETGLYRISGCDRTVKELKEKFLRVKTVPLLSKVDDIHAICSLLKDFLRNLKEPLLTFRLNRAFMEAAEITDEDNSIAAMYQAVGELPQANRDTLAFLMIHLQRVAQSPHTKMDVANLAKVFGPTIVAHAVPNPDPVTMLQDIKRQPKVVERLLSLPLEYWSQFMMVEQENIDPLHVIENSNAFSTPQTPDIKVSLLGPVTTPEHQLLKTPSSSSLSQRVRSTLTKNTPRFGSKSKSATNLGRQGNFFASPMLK

[18] = LGR2 antagonists, dose response, cell-based, HEK293, CRE-luciferase reporter, cherry pick, set 2 (AID 743343); format: functional;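 also: transfected cells were stimulated with diluted bursicon conditioned medium after compound addition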
[19] = Luminescence Cell-Based Dose Response HTS to Identify Inhibitors of 5'UTR Stem-Loop Driven Prion Protein mRNA Translation in H4 Neuroglioblastoma Cells. [Related pubchem assays: 1827 (Project Summary), 1813 (Primary HTS)]; format: functional
[20] = inhibitors of firefly luciferase expression or activity, dose response, H4 neuroglioma cells, luminescence (AID 1990); format: functional, cell-based
[21] = HepG2 cell cytotoxicity, dose response, cytotoxicity control, plate reader, cherry-pick, antagonist series (AID 743416); format: functional, cell-based
[22] = inhibitors of SNCA 5'UTR-driven reporter translation, confirmation, H4 neuroglioma cells, luminescence (AID 1988); format: functional, cell-based
[23] = MC4R antagonists, dose response, counter-screen for LGR2 antagonist project, cell-based, plate reader, cherry pick (AID 743444); format: functional;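 also: transfected HEK 293 cells stimulated with alpha-MSH peptide; potency of inhibitors of the alpha-MSH evoked signal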

SMILES	AC50 [2]	AC50 [3]	AC50 [4]	AC50 [5]	AC50 [6]	IC50 [9]	further results
COc1ccccc1CN1C[C@@H]2N[C@H](C1)[C@@H]2c1ccc(-c2ccc(C#N)cc2)cc1	1.68 µM (active)	2.8 µM (active)	2.39 µM (active)	7.43 µM (active)	2.36 µM (active)	–	AC50 [1]: 13.7 µM (active)
Clc1ccc(Nc2nc(-c3ccncc3)cs2)cc1	–	–	–	–	–	18.2 µM (active)	EC50 [7]: 4 µM (active); EC50 [8]: 0.329 µM (active)
CS(=O)(=O)N(CC(=O)NCc1ccco1)c1ccc2c(c1)OCO2	–	–	–	–	–	40.1 µM (not active)	–
CCOC(=O)c1c(C)[nH]c(C(=O)OCC(=O)Nc2sc(C(=O)N(C)C)c(C)c2C(=O)OCC)c1C	–	–	–	–	–	–	EC50 [7]: > 60 µM (not active); IC50 [10]: > 47.1 µM (inactive); CC50 [11]: > 40 µM (active); EC50 [8]: 0.36 µM (active); EC50 [12]: > 53 µM (inactive)
COc1ccc2c3c([nH]c2c1)[C@H](CO)N(C(=O)Nc1ccc(F)cc1)CC31CCN(S(=O)(=O)c2ccccc2)CC1	1.3 µM (active)	0.417 µM (active)	2.14 µM (active)	48.9 µM (active)	0.909 µM (active)	–	–
CC(OC(=O)c1cccc(O)c1)C(=O)N(C)Cc1ccccc1 (stereo unspecified)	–	–	–	–	–	–	CC50 [11]: > 40 µM (active)
C[C@H]1CN([C@@H](C)CO)C(=O)c2c(c3ccccc3n2C)-c2ccccc2CO[C@H]1CN(C)S(=O)(=O)c1ccc(Cl)cc1	0.108 µM (active)	0.154 µM (active)	0.134 µM (active)	41.2 µM (active)	0.396 µM (active)	–	–
O=c1[nH]c2cc3c(cc2cc1CN(Cc1cccs1)Cc1nnnn1Cc1ccco1)OCCO3	–	–	–	–	–	> 50 µM (not active)	–
N#Cc1ccc(-c2ccc([C@H]3[C@@H]4CN(C(=O)C5CCCCC5)C[C@H]3N4)cc2)cc1	3.47 µM (active)	4.16 µM (active)	3.78 µM (active)	42.9 µM (active)	2.2 µM (active)	–	AC50 [1]: 24.1 µM (active)
C[C@H](CO)N1C[C@H](C)[C@@H](CN(C)C(=O)Nc2ccc(F)cc2)OCc2ccccc2-c2c(n(C)c3ccccc23)C1=O	0.348 µM (active)	0.397 µM (active)	0.662 µM (active)	46.8 µM (active)	0.907 µM (active)	–	AC50 [13]: < 0.26 µM (active); AC50 [14]: 24.6 µM (active); AC50 [15]: < 0.26 µM (active); AC50 [16]: < 0.26 µM (active)
C=CCc1ccc(OCCOCCNCCCC)c(OC)c1	–	–	–	–	–	–	IC50 [17]: 132 µM (active); CC50 [11]: > 40 µM (active)
COc1ccc(-n2nc(C(=O)Nc3ccc(OC)c(OC)c3)c3c4ccccc4n(C)c3c2=O)cc1	–	–	–	–	–	> 50 µM (not active)	–
C=CCN1CCN(C(=O)CCCc2ccccc2)CC1	–	–	–	–	–	–	AC50 [18]: 5.97 µM (active); EC50 [19]: 6.53 µM (active); EC50 [20]: 7.4 µM (inconclusive); AC50 [21]: > 52 µM (inactive); EC50 [22]: 3.79 µM (active); AC50 [23]: 8.87 µM (active)
